Reference: patent publication US10093713B2, “GIP-GLP-1 dual agonist compounds and methods” (priority 2013, dated 2018)
Read-outs that look alike come from different tables or passages of the source. *1 amine or outer side, *2 acyl side, *3 side chain or, on linkers, in order; H or OH if unused. Where a SMILES comes first, the peptide text is derived from it. Side-chain parts run from the residue outwards. [ ]: non-standard residue; d: D form. The star is where a group is joined. C20 diacid = O=C(O)CCCCCCCCCCCCCCCCCCC(=O)*; C18 diacid = O=C(O)CCCCCCCCCCCCCCCCC(=O)*; γGlu = O=C(O)[C@H](CCC(=O)[*:2])N[*:1]; AEEA = NCCOCCOCC(=O)O; Aib = CC(C)(N)C(=O)O

Key:
human GIP R = target: T1, human GIP R (Homo sapiens, UniProt P48546); test: Human GIP receptor (GIP R) activity assay, cAMP induction (AlphaScreen) in HEK293 cells; type: cell-based; conditions: read-out: hGIP-R cAMP EC50 average value
T1 construct: expressed in transfected cells
T1 sequence (P48546 22-466): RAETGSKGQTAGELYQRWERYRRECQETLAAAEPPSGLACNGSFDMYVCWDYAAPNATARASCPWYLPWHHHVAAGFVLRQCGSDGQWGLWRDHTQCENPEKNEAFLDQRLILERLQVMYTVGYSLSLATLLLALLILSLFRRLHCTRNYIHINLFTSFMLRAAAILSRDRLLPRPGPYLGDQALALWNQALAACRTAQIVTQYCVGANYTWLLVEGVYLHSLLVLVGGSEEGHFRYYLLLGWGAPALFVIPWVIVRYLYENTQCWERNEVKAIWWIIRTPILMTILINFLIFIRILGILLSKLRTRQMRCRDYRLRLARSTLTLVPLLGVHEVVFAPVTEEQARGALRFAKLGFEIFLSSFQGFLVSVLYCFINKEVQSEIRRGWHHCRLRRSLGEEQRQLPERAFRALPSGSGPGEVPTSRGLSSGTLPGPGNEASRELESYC
Outline: (§1)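 Stable HEK293 clones expressing human GIP R or GLP-1 R, seeded 1 day before; cells washed in Tyrode's buffer (10 mM HEPES, pH 7.4), stimulated, then lysed. cAMP measured by AlphaScreen bead competition (1 h, room temperature, dark). EC50 = concentration giving half-maximal cAMP elevation, from curves of absolute cAMP (nM) vs log concentration.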

[1] = Pharmacokinetics of selected compounds in mice; type: in vivo, C57BL/6J mice; conditions: male, C57BL/6J, mouse, plasma; for bioavailability: subcutaneous, AUCinf (s.c.)/AUCinf (i.v.)x100, values marked * capped to 100%
Description: Pharmacokinetics of Selected Compounds in Mice
C57BL/6J mice (males with a body weight of approximately 25 g) were given either a single subcutaneous (s.c.) bolus or a single intravenous (i.v.) bolus of each peptide to be tested.
Following s.c. administration of the selected compounds (50, 100 or 200 nmol/kg), blood samples were drawn at 8 (eight) timepoints up to 72 hours post-dose. Following i.v. administration of the selected compounds (50, 100 or 200 nmol/kg), blood samples were drawn at 8 (eight) timepoints up to 48 hours post-dose. Blood samples were drawn by sublingual bleeding. The dosing vehicle was a phosphate buffer containing mannitol (pH 7.5).
At each sampling time point, samples from two mice were drawn, i.e. 16 mice were included for each compound and each administration route. The mice were euthanized immediately after blood sampling by cervical dislocation. Plasma samples were analyzed after solid phase extraction (SPE) or protein precipitation followed by liquid chromatography mass spectrometry (LC-MS/MS). Mean plasma concentrations were used for calculation of the pharmacokinetic parameters using the non-compartmental approach in Phoenix WinNonlin 6.3. Plasma terminal elimination half-life (T½) was determined as […] where λz is the magnitude of the slope of the log linear regression of the log concentration versus time profile during the terminal phase. Bioavailability was determined as AUCinf (s.c.)/AUCinf (i.v.)×100, where AUCinf is the area under the plasma concentration−time curve extrapolated to infinity (AUCinf=AUClast+Clast/λz, where Clast is the last observed plasma concentration). Tmax is the post-dose time where the maximal plasma concentration was observed.

human GLP-1 R = target: T2, human GLP-1 R (Homo sapiens, UniProt P43220); test: Human GLP-1 receptor (GLP-1 R) activity assay, cAMP induction (AlphaScreen) in HEK293 cells; type: cell-based
T2 construct: expressed in transfected cells
T2 sequence (P43220 24-463): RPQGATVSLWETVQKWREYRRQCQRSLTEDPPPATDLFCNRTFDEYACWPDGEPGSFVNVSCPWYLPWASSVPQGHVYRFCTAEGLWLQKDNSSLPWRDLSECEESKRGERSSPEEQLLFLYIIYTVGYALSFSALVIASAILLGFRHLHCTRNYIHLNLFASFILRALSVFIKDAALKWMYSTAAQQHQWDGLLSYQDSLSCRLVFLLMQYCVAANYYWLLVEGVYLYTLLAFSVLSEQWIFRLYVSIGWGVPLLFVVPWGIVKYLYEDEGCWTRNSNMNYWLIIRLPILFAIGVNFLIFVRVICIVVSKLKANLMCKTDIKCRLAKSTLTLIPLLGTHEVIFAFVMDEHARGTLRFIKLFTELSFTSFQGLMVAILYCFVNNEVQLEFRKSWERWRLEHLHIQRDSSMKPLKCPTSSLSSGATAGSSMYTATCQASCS
Outline: as §1

[2] = Table 2, HEK293 cells expressing human GIP R
[3] = Table 2a, secondary assay study
[4] = Table 3, most comprehensive data
[5] = iv, single i.v. bolus, read-out: T½ terminal elimination half-life, i.v. (converted)
[6] = sc, single s.c. bolus, read-out: T½ terminal elimination half-life, s.c. (converted)
[7] = Table 2, HEK293 cells expressing human GLP-1 R, read-out: hGLP1-R cAMP EC50 average value
[8] = Table 2a, secondary assay study, read-out: hGLP1-R cAMP EC50 average value
[9] = Table 3, most comprehensive data, read-out: hGLP-1-R cAMP EC50 average value

Row | SMILES | EC50 (human GIP R; [2]) | EC50 (human GIP R; [3]) | EC50 (human GIP R; [4]) | half-life [1, 5] | bioavailability [1] | Tmax ([1]; sc, single s.c. bolus) | half-life [1, 6] | EC50 (human GLP-1 R; [7]) | EC50 (human GLP-1 R; [8]) | EC50 (human GLP-1 R; [9])
1 | CC[C@H](C)[C@H](NC(=O)[C@H](CO)NC(=O)[C@H](Cc1ccc(O)cc1)NC(=O)[C@H](CC(=O)O)NC(=O)[C@H](CO)NC(=O)[C@@H](NC(=O)[C@H](Cc1ccccc1)NC(=O)[C@@H](NC(=O)CNC(=O)[C@H](CCC(=O)O)NC(=O)C(C)(C)NC(=O)[C@@H](N)Cc1ccc(O)cc1)[C@@H](C)O)[C@@H](C)O)C(=O)N[C@@H](Cc1ccc(O)cc1)C(=O)N[C@@H](CC(C)C)C(=O)N[C@@H](CC(=O)O)C(=O)N[C@@H](CCCCN)C(=O)N[C@@H](CCCCNC(=O)COCCOCCNC(=O)COCCOCCNC(=O)CC[C@H](NC(=O)CCCCCCCCCCCCCCCCC(=O)O)C(=O)O)C(=O)N[C@@H](C)C(=O)N[C@@H](CCC(N)=O)C(=O)N[C@@H](CCCNC(=N)N)C(=O)N[C@@H](C)C(=O)N[C@@H](Cc1ccccc1)C(=O)N[C@H](C(=O)N[C@@H](CCC(=O)O)C(=O)N[C@@H](Cc1c[nH]c2ccccc12)C(=O)N[C@@H](CC(C)C)C(=O)N[C@@H](CC(C)C)C(=O)N[C@@H](C)C(=O)N[C@@H](CCC(N)=O)C(=O)NCC(=O)N1CCC[C@H]1C(=O)N[C@@H](CO)C(=O)N[C@@H](CO)C(=O)NCC(=O)N[C@@H](C)C(=O)N1CCC[C@H]1C(=O)N1CCC[C@H]1C(=O)N1CCC[C@H]1C(=O)N[C@@H](CO)C(N)=O)C(C)C [Compound 1] (H-Y[Aib]EGTFTSDYSIYLDKK([AEEA-AEEA-γGlu-C18 diacid])AQRAFVEWLLAQGPSSGAPPPS-NH2) | 5.5 pM | 6 pM | 6 pM | 10.8 h | 90% | 6 h | 9.1 h | 12 pM | 15 pM | 15 pM
2 | CC[C@H](C)[C@H](NC(=O)[C@H](CO)NC(=O)[C@H](Cc1ccc(O)cc1)NC(=O)[C@H](CC(=O)O)NC(=O)[C@H](CO)NC(=O)[C@@H](NC(=O)[C@H](Cc1ccccc1)NC(=O)[C@@H](NC(=O)CNC(=O)[C@H](CCC(=O)O)NC(=O)C(C)(C)NC(=O)[C@@H](N)Cc1ccc(O)cc1)[C@@H](C)O)[C@@H](C)O)C(=O)N[C@@H](Cc1ccc(O)cc1)C(=O)N[C@@H](CC(C)C)C(=O)N[C@@H](CC(=O)O)C(=O)N[C@@H](CCCCN)C(=O)N[C@@H](CCCCNC(=O)COCCOCCNC(=O)COCCOCCNC(=O)CC[C@H](NC(=O)CCCCCCCCCCCCCCCCCCC(=O)O)C(=O)O)C(=O)N[C@@H](C)C(=O)N[C@@H](CCC(N)=O)C(=O)N[C@@H](CCCNC(=N)N)C(=O)N[C@@H](C)C(=O)N[C@@H](Cc1ccccc1)C(=O)N[C@H](C(=O)N[C@@H](CCC(=O)O)C(=O)N[C@@H](Cc1c[nH]c2ccccc12)C(=O)N[C@@H](CC(C)C)C(=O)N[C@@H](CC(C)C)C(=O)N[C@@H](C)C(=O)N[C@@H](CCC(N)=O)C(=O)NCC(=O)N1CCC[C@H]1C(=O)N[C@@H](CO)C(=O)N[C@@H](CO)C(=O)NCC(=O)N[C@@H](C)C(=O)N1CCC[C@H]1C(=O)N1CCC[C@H]1C(=O)N1CCC[C@H]1C(=O)N[C@@H](CO)C(N)=O)C(C)C [Compound 2] (H-Y[Aib]EGTFTSDYSIYLDKK([AEEA-AEEA-γGlu-C20 diacid])AQRAFVEWLLAQGPSSGAPPPS-NH2) | 4.9 pM | 8 pM | 8 pM | 16.6 h | 83% | 6 h | 16.5 h | 8.3 pM | 11 pM | 11 pM
3 | CC[C@H](C)[C@H](NC(=O)[C@H](CO)NC(=O)[C@H](Cc1ccc(O)cc1)NC(=O)[C@H](CC(=O)O)NC(=O)[C@H](CO)NC(=O)[C@@H](NC(=O)[C@H](Cc1ccccc1)NC(=O)[C@@H](NC(=O)CNC(=O)[C@H](CCC(=O)O)NC(=O)C(C)(C)NC(=O)[C@@H](N)Cc1ccc(O)cc1)[C@@H](C)O)[C@@H](C)O)C(=O)N[C@@H](Cc1ccc(O)cc1)C(=O)N[C@@H](CC(C)C)C(=O)N[C@@H](CC(=O)O)C(=O)N[C@@H](CCCCN)C(=O)N[C@@H](CCCCNC(=O)COCCOCCNC(=O)COCCOCCNC(=O)CC[C@H](NC(=O)CCCCCCCCCCCCCCCCCCC(=O)O)C(=O)O)C(=O)N[C@@H](C)C(=O)N[C@@H](CCC(N)=O)C(=O)N[C@@H](CCCNC(=N)N)C(=O)N[C@@H](C)C(=O)N[C@@H](Cc1ccccc1)C(=O)N[C@H](C(=O)N[C@@H](CCC(=O)O)C(=O)N[C@@H](Cc1c[nH]c2ccccc12)C(=O)N[C@@H](CC(C)C)C(=O)N[C@@H](CC(C)C)C(=O)N[C@@H](C)C(=O)N[C@@H](CCC(=O)O)C(=O)NCC(=O)N1CCC[C@H]1C(=O)N[C@@H](CO)C(=O)N[C@@H](CO)C(=O)NCC(=O)N[C@@H](C)C(=O)N1CCC[C@H]1C(=O)N1CCC[C@H]1C(=O)N1CCC[C@H]1C(=O)N[C@@H](CO)C(N)=O)C(C)C [Compound 54] (H-Y[Aib]EGTFTSDYSIYLDKK([AEEA-AEEA-γGlu-C20 diacid])AQRAFVEWLLAEGPSSGAPPPS-NH2) | – | – | 16 pM | – | – | – | – | – | – | 12 pM
4 | CC[C@H](C)[C@H](NC(=O)[C@H](CO)NC(=O)[C@H](Cc1ccc(O)cc1)NC(=O)[C@H](CC(=O)O)NC(=O)[C@H](CO)NC(=O)[C@@H](NC(=O)[C@H](Cc1ccccc1)NC(=O)[C@@H](NC(=O)CNC(=O)[C@H](CCC(=O)O)NC(=O)C(C)(C)NC(=O)[C@@H](N)Cc1ccc(O)cc1)[C@@H](C)O)[C@@H](C)O)C(=O)N[C@@H](C)C(=O)N[C@@H](CC(C)C)C(=O)N[C@@H](CC(=O)O)C(=O)N[C@@H](CCCCN)C(=O)N[C@@H](CCCCNC(=O)COCCOCCNC(=O)COCCOCCNC(=O)CC[C@H](NC(=O)CCCCCCCCCCCCCCCCCCC(=O)O)C(=O)O)C(=O)N[C@@H](C)C(=O)N[C@@H](CCC(N)=O)C(=O)N[C@@H](CCCNC(=N)N)C(=O)N[C@@H](C)C(=O)N[C@@H](Cc1ccccc1)C(=O)N[C@H](C(=O)N[C@@H](CCC(=O)O)C(=O)N[C@@H](Cc1c[nH]c2ccccc12)C(=O)N[C@@H](CC(C)C)C(=O)N[C@@H](CC(C)C)C(=O)N[C@@H](C)C(=O)N[C@@H](CCC(=O)O)C(=O)NCC(=O)N1CCC[C@H]1C(=O)N[C@@H](CO)C(=O)N[C@@H](CO)C(=O)NCC(=O)N[C@@H](C)C(=O)N1CCC[C@H]1C(=O)N1CCC[C@H]1C(=O)N1CCC[C@H]1C(=O)N[C@@H](CO)C(N)=O)C(C)C [Compound 55] (H-Y[Aib]EGTFTSDYSIALDKK([AEEA-AEEA-γGlu-C20 diacid])AQRAFVEWLLAEGPSSGAPPPS-NH2) | – | – | 16 pM | – | – | – | – | – | – | 13 pM
5 | CC[C@H](C)[C@H](NC(=O)[C@H](CO)NC(=O)[C@H](Cc1ccc(O)cc1)NC(=O)[C@H](CC(=O)O)NC(=O)[C@H](CO)NC(=O)[C@@H](NC(=O)[C@H](Cc1ccccc1)NC(=O)[C@@H](NC(=O)CNC(=O)[C@H](CCC(=O)O)NC(=O)C(C)(C)NC(=O)[C@@H](N)Cc1ccc(O)cc1)[C@@H](C)O)[C@@H](C)O)C(=O)N[C@@H](C)C(=O)N[C@@H](CC(C)C)C(=O)N[C@@H](CC(=O)O)C(=O)N[C@@H](CCCCN)C(=O)N[C@@H](CCCCNC(=O)COCCOCCNC(=O)COCCOCCNC(=O)CC[C@H](NC(=O)CCCCCCCCCCCCCCCCCCC(=O)O)C(=O)O)C(=O)N[C@@H](C)C(=O)N[C@@H](CCC(N)=O)C(=O)N[C@@H](CCCNC(=N)N)C(=O)N[C@@H](C)C(=O)N[C@@H](Cc1ccccc1)C(=O)N[C@H](C(=O)N[C@@H](CCC(=O)O)C(=O)N[C@@H](Cc1c[nH]c2ccccc12)C(=O)N[C@@H](CC(C)C)C(=O)N[C@@H](CC(C)C)C(=O)N[C@@H](C)C(=O)N[C@@H](CCC(=O)O)C(=O)N1CCC[C@H]1C(=O)N[C@@H](CO)C(=O)N[C@@H](CO)C(=O)NCC(=O)N[C@@H](C)C(=O)N1CCC[C@H]1C(=O)N1CCC[C@H]1C(=O)N1CCC[C@H]1C(=O)N[C@@H](CO)C(N)=O)C(C)C [Compound 56] (H-Y[Aib]EGTFTSDYSIALDKK([AEEA-AEEA-γGlu-C20 diacid])AQRAFVEWLLAEPSSGAPPPS-NH2) | – | – | 25 pM | – | – | – | – | – | – | 33 pM
